Measured values taken from paper PMC8541546, “Identification of HLA-A2-Restricted Mutant Epitopes from Neoantigens of Esophageal Squamous Cell Carcinoma” (Vaccines, 2021).

Assays:
[1] = target: T1, HLA-A*0201 molecule (Homo sapiens, UniProt P04439, D140Y/D185E/D98H/E176V/E277Q/G131W/G231S/I119V/I121R/I166T/I218V/L300P/L318F/N151K/N90K/P208A/P217A/Q86G/Q94H/R138H/R169H/T345S); assay: T2A2 cell-binding assay; conditions: T2A2 cells; FI = (MFI of peptide - MFI of control without peptide)/MFI of control without peptide; anti-HLA-A2 BB7.2, flow cytometry; FI > 1 = high binding affinity
T1 construct: T2A2 cells (TAP-deficient HLA-A2 molecules overexpressing, cultured in IMDM medium); host or cells: T2A2 cells
Experimental: The binding affinity of neoepitope to the MHC molecule and the stable neoepitope/MHC complex are critical for inducing T cell immune response, so we first performed a T2A2 cell-binding assay and stabilization assay. The T2A2 cell-binding assay was measured as in our previous study. The binding affinity was computed as follows: fluorescence index (FI) = (mean fluorescence intensity (MFI) of peptide group-MFI of the dissolved buffer without peptide group)/MFI of the dissolved buffer without peptide group.

[2] = target: T2, peptide/HLA-A*0201 complex (Homo sapiens, UniProt P04439, D140Y/D185E/D98H/E176V/E277Q/G131W/G231S/I119V/I121R/I166T/I218V/L300P/L318F/N151K/N90K/P208A/P217A/Q86G/Q94H/R138H/R169H/T345S); assay: peptide/MHC complex stabilization assay on T2A2 cells; format: binding; conditions: T2A2 cells pulsed with 50 μg/mL peptide and 3 μg/mL β2-M 18 h, BFA 1 h; MFI at 0, 2, 4, 6 h; time of half losing MFI of 0 h
T2 construct: T2A2 cells (TAP-deficient HLA-A2 molecules overexpressing, cultured in IMDM medium); β2-M from Merck; host or cells: T2A2 cells
Experimental: For the stabilization test, T2A2 cells were pulsed with 50 μg/mL mutant peptide and 3 μg/mL β2-Microglobulin (β2-M, Merck, Kenilworth, NJ, USA) in IMDM (serum-free) medium for 18 h. After three times washing, free peptides were removed and brefeldin A (BFA, 10 μg/mL, BD Bioscience, San Diego, CA, USA) was added. BFA was removed after 1 h impeding, and the cells were incubated for additional time. Finally, T2A2 was marked with anti-human HLA-A2 PE-Cyanine7 for 30 min, then analyzed by FACS Calibur (BD Bioscience, USA). MFI of 0 h was set as 100%, and the time of half losing MFI of 0 h defined the dissociation complex 50 (DC50). DC50 was computed as follows: (MFI of 0 h-MFI of (2, 4, or 6 h))/MFI of 0 h × 100%.

[3] = test system: peptide-pulsed T2A2 cells; assay: IFN-γ intracellular staining of peptide-induced T cells from donor PBMCs; format: cell-based, human; conditions: PBMCs of HLA-A2+ donors B–F, DCs pulsed with 10 μg/mL peptide, three rounds
Experimental: (§1) DCs involve and play an important role in initiating CD8^+ T cell response. Consequently, ten HLA-A2^+ healthy donors’ PBMCs were isolated, autologous DCs were generated, and CTLs were induced according to the procedure described previously. In brief, PBMCs were seeded at a density of 5 × 10^6 cells/well in a 6-well plate, and after 3 h, the non-adherent cells were removed and cryopreserved for future incubation with mature autologous DCs. Differentiation of the adherent cells into dendritic cells was induced by GM-CSF (100 ng/mL, #300-03, PeproTech, Rocky Hill, NJ, USA) and IL-4 (100 ng/mL; #200-04, PeproTech, USA), with replenishment every 2 days. On day 5, maturation of DCs was induced using 100 ng/mL LPS (#L4516, Sigma-Aldrich, St. Louis, MO, USA), and maturation was checked on day 8 by flow cytometry (BD FACSCelesta™) using markers for anti-human HLA-DR, anti-human CD80, and anti-human CD86. Then, mature DCs (1 × 10^5) were pulsed with each 10 μg /mL individual peptide or no peptides (control) for 2 h at 37 °C. Next, peptide-pulsed DCs were used to prime the previously cryopreserved autologous peripheral blood lymphocytes (PBLs) at a DC/PBL ratio of 1:10 using complete RPMI-1640 media supplemented with 100 IU/mL rhIL-2 (#200-02, PeproTech, USA) and 10 ng/mL rhIL-7 (#200-07, PeproTech, USA). Half of the feeding medium was replenished every 2 days. After 7 days, PBLs were restimulated with freshly pulsed autologous DCs every 7 days.
When target cells were peptide-pulsed T2A2 cells (MUT peptide or its corresponding WT peptide), peptide-specific T cells (from HLA-A2^+ healthy donors B–F) stimulated by MUT peptides were co-cultured with these cells in the presence of BFA for 5 h. Then T cells were marked by anti-human CD3 and anti-human CD8α monoclonal antibody. Thirty minutes later, cells were fixed by fixation buffer (Thermo Scientific, Waltham, MA, USA) for thirty minutes and washed by permeabilization buffer (Thermo Scientific, USA). Permeabilized T cells were marked by anti-human IFN-γ monoclonal antibody.

[4] = test system: peptide-pulsed T2A2 cells; assay: Cytotoxicity assay of peptide-induced T cells from donor PBMCs; format: cell-based, human; conditions: donors B–F; E/T 12.5:1, 25:1, 50:1; T2A2 loaded with 50 μg/mL peptide
Experimental: as §1
The cytotoxicity of peptide-specific T cells stimulated by mutant peptides was tested by using Cell Trace Far Red (Thermo Scientific, USA). Transfected cells were suspended in PBS (1 × 10^6 cells/mL) and labelled with Cell Trace Far Red as follows: Control target cells and test target cells were marked by 50 μM and 1 mM Cell Trace Far Red, respectively, at 37 °C for 20 min, protected from light. After incubation, target cells were washed with complete media at 37 °C for 5 min. […] Subsequently, test target cells were mixed with control target cells in a tube, washed once, and analyzed by flow cytometry. Specific lysis (%) = (numbers of control target cells—numbers of test target cells)/numbers of control target cells × 100% [28, 29], where, for tumor cells, the control target cells refer to KYSE140-WT cells marked with 50 μM Cell Trace Far Red, and the test target cell refers to KYSE140-WT or KYSE140-MUT cells marked with 1 mM Cell Trace Far Red, respectively (peptide-specific T cells generated from donors G–K’s PBMCs in vitro or generated from spleen lymphocytes of HLA-A2.1/K^b Tg mice in vivo). Additionally, for T2A2 target cells, T2A2 cells unpulsed and marked with 50 μM Cell Trace Far Red were used as the control target cells, while T2A2 cells loaded with MUT peptides or the corresponding WT peptides (50 μg/mL) or T2A2 cells only were marked with 1 mM Cell Trace Far Red and were used as test target cells (peptide-specific T cells stimulated from donors B–F’s PBMCs).

Row | Sequence | FI (fluorescence index) [1] | DC50 (dissociation complex 50) [2] | IFN-γ release of MUT peptide-induced T cells, MUT versus WT peptide-loaded T2A2 cells [3] | lysis cytotoxicity of MUT peptide-induced T cells on T2A2 cells [4]
1 | QLQAQLQGV [KMT2D-R4198Q] | 1.12 | <2 h |  | 
2 | ILGEEAPRL [KMT2D-F4722L] | 0.29 |  |  | 
3 | ALNKMFFQL [TP53-C135F] | 0.12 |  |  | 
4 | TILEELNVV [SYNE1-N4342I] | 1.81 | <4 h |  | 
5 | CLRDYQPFL [LRP2-D1744Y] | 0.20 |  |  | 
6 | VISDYKYKV [NEB-D3282V] | 0.09 |  |  | 
7 | ILWRQDTDL [NFE2L2-I28T] | 0.79 |  |  | 
8 | SIPSFPLPV [MUC16-S5361F] | 2.25 | <2 h |  | 
9 | ILIGETIKI [COX-2 321–329, reference compound] | 2.12 | >6 h |  | 
10 | ILQDGFLYV [ABCA13-E1359Q] | 1.56 | >6 h | cannot effectively distinguish T2A2 cells loaded with WT or MUT peptides | strong cytotoxicity activity
11 | GLPNDDLYI [DNAH5-S3587Y] | 0.68 |  |  | 
12 | GLFQCGTGL [LRP1B-R3362L] | 0.09 |  |  | 
13 | LMSRIPHDV [MUC16-Q5024H] | 0.14 |  |  | 
14 | ALPQHLIRV [TP53-P190L] | 1.26 | >4 h | cannot effectively distinguish T2A2 cells loaded with WT or MUT peptides | strong cytotoxicity activity
15 | VLDDSETTI [MUC16-A9832D] | 3.56 | >6 h | cannot effectively distinguish T2A2 cells loaded with WT or MUT peptides | strong cytotoxicity activity
16 | YLLTPNGRV [LRP1B-C2479Y] | 0.39 |  |  | 
17 | SMGDALDSI [MUC16-A4579D] | 1.35 | <2 h |  | 

Row | Sequence | FI (fluorescence index) [1] | DC50 (dissociation complex 50) [2] | IFN-γ release of MUT peptide-induced T cells, MUT versus WT peptide-loaded T2A2 cells [3] | lysis cytotoxicity of MUT peptide-induced T cells on T2A2 cells [4]
18 | NLHSINDFL [ABCA13-D1303H] | 0.24 |  |  | 
19 | LLARNSFEV [TP53-G266A] | 0.16 |  |  | 
20 | GMLSPVDFL [NOTCH1-S2202F] | 0.13 |  |  | 
21 | KLLSLLEVL [SYNE1-A65S] | 0.08 |  |  | 
22 | RMHDVTTPL [NOTCH1-G1995V] | 0.42 |  |  | 
23 | FLIQTEQKL [SYNE1-V7402I] | 1.27 | >6 h | cannot effectively distinguish T2A2 cells loaded with WT or MUT peptides | strong cytotoxicity activity
24 | LLGRNSFEL [TP53-V272L] | 0.53 |  |  | 
25 | RMQRVLSHV [DNAH5-L4406H] | 0.30 |  |  | 
26 | YMCNSSCMV [TP53-G244V] | 0.49 |  |  | 
27 | TMPVVSSEV [MUC17-A2414V] | 1.54 | <4 h |  | 
28 | FLTATRQEI [DNAH5-M4495T] | 0.21 |  |  | 
29 | FMNELMDII [DNAH5-D4110N] | 0.38 |  |  | 
30 | YLPDHHEEL [SYNE1-S7628Y] | 1.67 | <2 h |  | 
31 | TMSERSTLL [MUC17-T3809M] | 0.12 |  |  | 
32 | ALDMCVKFL [LRP1B-P3707L] | 0.37 |  |  | 
33 | TLTATVNIV [PCDH15-S628L] | 0.43 |  |  | 
